The nature of one data set: Solubility in water. In kind it is physicochemical. The source says: It will be recognized that aqueous solubility of many compounds is pH dependent; in the case of such compounds the solubility of interest herein is at a physiologically relevant pH, for example a pH of about 1 to about 8.
The nature of data set [1]: Bioavailability of ABT-737 in a rat model. In kind it is in vivo. The following applies: regardless of formulation.

Where two headings read alike, the source gives them in different places.

For `CC1(C)CCC(c2ccc(Cl)cc2)=C(CN2CCN(c3ccc(C(=O)NS(=O)(=O)c4ccc(N[C@H](CCN5CCOCC5)CSc5ccccc5)c(S(=O)(=O)C(F)(F)F)c4)cc3)CC2)C1` [ABT-263], the solubility is under 4 µg/mL in “Solubility in water” (pH 2, aqueous buffer, read-out: solubility in water at pH 2) and under 10 µg/mL in the data set “Solubility in water” (physiologically relevant pH, about 1 to about 8, read-out: solubility in water).

`CN(C)CC[C@H](CSc1ccccc1)Nc1ccc(S(=O)(=O)NC(=O)c2ccc(N3CCN(Cc4ccccc4-c4ccc(Cl)cc4)CC3)cc2)cc1[N+](=O)[O-]` [ABT-737, N-(4-(4-((4′-chloro-(1,1′-biphenyl)-2-yl)methyl)piperazin-1-yl)benzoyl)-4-(((1R)-3-(dimethylamino)-1-((phenylsulfanyl)methyl)propyl)amino)-3-nitrobenzene-sulfonamide] gave a Bioavailability in data set [1] of at most 6%.

One may read the solubility as the concentration that dissolves in the medium under given conditions.

These data come from patent publication US20100278921A1 (priority 2009, published 2010).
